Series [1] is described as follows: Metabolic stability in human liver microsomes. The format is in vitro ADME. Particulars: 1 μM, estimated by first order kinetics. The protocol:
(§1) Metabolic stability was measured by Wuxi AppTech (Shanghai, China). Briefly, peptides (1 μM, 5% MeOH in potassium phosphate buffer) were incubated with human (catalogue no. 452161 from BD Gentest) and mouse (catalogue no. M1000, Xenotech) liver microsomes at 37°C for 10 min. Liver microsomes were at a final assay concentration of 0.7 mg protein/mL. The reaction was started by the addition of 90 μL of NADP cofactor solution and stopped by the addition of 300 μL of stop solution (acetonitrile at 4°C, including 100 ng/mL tolbutamide as an internal standard) after 20 min of incubation. The samples were shaken for 5 min and then centrifuged for 20 min at 1500 g. A 100 μL aliquot of the supernatant was transferred to eight new 96-well plates with 300 μL of HPLC water and centrifuged at 1500 g for LC-MS/MS analysis (Shimadzu LC 10-AD−API 4000). An injection volume of 10 μL was added to a Phenomenex Synergi C18 column eluting with formic acid in water or acetonitrile at a flow rate of 800 μL/min. The percent loss of parent compound was calculated from the peak area ratio of the analyte/internal standard. Compounds and positive controls were tested in duplicate.

Series [2] in a line: Metabolic stability in mouse liver microsomes. It counts as in vitro ADME. As to conditions: 1 μM, estimated by first order kinetics. The protocol:
as §1

Another series deals with CT26 tumor cells. In words: AH1 vaccination and CT26 tumor challenge. The format is in vivo, BALB/c mice. As to conditions: AH1 in IFA, peptide 10 nanomol/mice/day i.p. 10 days, challenge 10^6 CT26 cells s.c. day 10. Here is the method:
In those experiments, BALB/c mice were immunized with peptide AH1 emulsified in IFA and treated daily with saline or with 50 nanomol/mice/day of peptide P60 i.p. from day 0 to day 9 after immunization. To study the efficacy of CM-1315, our optimized version of P60, mice immunized with AH1 were treated with 10 nanomol/mice/day of P60 or CM-1315 and challenged at day 10 by s.c. injection with 10^6 CT26 tumor cells (instead of 5 × 10^5 cells used in our previous study). As control, groups of mice were injected with AH1 alone or left untreated.
For tumor rejection experiments, Hepa-129 cells (10^6 cells/mouse), were injected subcutaneously (sc) in C3H/HeN mice (n = 6). Ten days later, when the tumor reached 5 mm in diameter, mice were randomly divided into different experimental groups. A group of mice were treated i.p. with anti-PD1 antibodies (50 μg/mouse). Antibody administration was repeated one week after this first administration. A group of mice treated with anti-PD1 also received the cyclic peptide CM-1215 from days 10 to 20 (50 μg/mice/day). Tumor size, presented as the average of two perpendicular diameters (millimetres), was measured at regular intervals. Mice were sacrificed when the mean tumor diameter was greater than 20 mm. […] Tumor size was monitored twice a week with a calliper and it was expressed according to the formula V = (length × width^2)/2. […]

Another series has as its system CD4+CD25-ve splenocytes. Nature of the series: Effector T cells alone stimulated with anti-CD3: proliferation, IL-2 and IFN-γ. The format is cell-based. Particulars: anti-CD3 stimulation, no Treg. An excerpt: (§2) FOXP3 is critical for the development and function of Tregs, but also, FOXP3 can be transiently expressed in effector T cells after TCR stimulation leading to hyporesponsiveness of the effector T cell. […] We speculate that the Foxp3 inhibitory peptides may work at two levels: (i) reducing Treg function and (ii) releasing the brake of FOXP3 transient expression on effector T cells. Thus, we studied the effect of CM-1315 in T cell proliferation and IL-2 and IFN-γ production in effector T cells in response to anti-CD3 stimulation. The original P60, the optimized peptide CM-1315 and a control peptide were tested. […] We also studied the effect of the peptides directly in Tregs. Thus, freshly isolated Treg cells were pre-treated with the peptides for 24 h, and after extensive washing, they were used in conventional Treg suppression assay in coculture with effector T cells and anti-CD3 stimulation.
(§3) Supplementary Figure 4: Effect of Foxp3 inhibitory peptides in effector T cells alone. […] T cell proliferation (A) and IL-2 and IFN-γ (B and C) production in response to anti-CD3 stimulation was measured by 3H-thymidine incorporation and by ELISA respectively.
(§4) Supplementary Figure 5: Effect of FOXP3 inhibitory peptides in Treg cells. […] T cell proliferation was measured by 3H-thymidine incorporation assay. […]

Another series relates to Treg cells. Nature of the series: Treg pre-treated with peptide, then Treg suppression assay. It counts as cell-based. As to conditions: Treg incubated with peptide at 20 μM for 24 hours, washed.
Description: as §2, §3, §4

The test system of series [3] is AH1-specific IFN-γ producing cells. Nature of the series: AH1 immunization in CD25+ depleted mice, IFN-γ ELISPOT. The format is in vivo. Particulars: mice depleted of CD25+ T cells, CM-1315 day 1 to day 7. The source says: We also studied the effect of CM-1315 peptide in vivo to improve the immune response after immunization with AH1 peptide in naïve mice and in mice depleted of CD25+ T cells. In this experiment, depletion of CD25+ T cells improved the number of AH1-specific IFN-γ producing cells.
Supplementary Figure 6: In vivo the effect of CM-1315 peptide to improve the immunogenicity of AH1 peptide vaccine.
AH1 peptide, encompassing a cytotoxic T cell epitope for H-2Ld MHC class I molecule, was emulsified in Incomplete Freund adjuvant as previously described and used to immunize groups of naïve mice and in mice depleted of CD25+ T cells (n = 4). A group of CD25 depleted mice was immunized with AH1 and treated with CM-1315 peptide from day 1 to day 7 after immunization. Ten days after, immune response against AH1 was measured by ELISPOT assay to quantify the number of IFN-γ producing cells.
(1 picture or pasted object on this page, not shown here)

Molecules are shown by their SMILES. Where a SMILES comes first, the peptide text is derived from it. [ ]: non-standard residue; d: D form.

On to `CSCC[C@@H]1NC(=O)[C@H](C)NC(=O)[C@H](Cc2ccccc2)NC(=O)[C@H](Cc2ccccc2)NC(=O)[C@@H]2CCCN2C(=O)[C@H](Cc2c[nH]c3ccccc23)NC(=O)[C@H](CCSC)NC(=O)[C@H](CCCCN)NC(=O)[C@H](CCCNC(=N)N)NC(=O)[C@H](Cc2ccccc2)NC(=O)[C@H](C)NC(=O)[C@H](CCC(N)=O)NC(=O)[C@H](Cc2ccccc2)NC(=O)[C@@H](C)NC(=O)[C@H](CCCNC(=N)N)NC1=O` [CM-1315] (cyclo(R[dA]FQAFRKMWPFFAM)), for which the half-life in series [1] and in series [2] was approximately 1 h throughout. For the same molecule, the “Protection against CT26 tumor challenge (in words)” value with CT26 tumor cells is listed as “remained protected against challenge with CT26 tumor cells”. Besides, the “T cell proliferation and IL-2, IFN-γ production of effector T cells (in words)” value with CD4+CD25-ve splenocytes is on record as “more active than P60”. In addition, the “Inhibition of suppressive activity of pre-treated Treg (in words)” value in the series on Treg cells was “able to inhibit significantly the suppressive activity of Treg”. For the same molecule, in series [3], the “Number of AH1-specific IFN-γ producing cells (in words)” value is “significantly improved this response”.

As usually defined, the half-life is the time needed for the level to fall by half in the phase considered.

Values taken from article PMC5641083, “Blockage of FOXP3 transcription factor dimerization and FOXP3/AML1 interaction inhibits T regulatory cell activity: sequence optimization of a peptide inhibitor” (Oncotarget, 2017).
